Experimental data: patent publication US20020001652A1, “Process for making granulated N-[N- (3, 3-dimethylbutyl) -L-alpha -aspartyl] -L- phenylalanine 1-methyl ester” (priority 2000, published 2002)

How the values were obtained:
[1] = HPLC analysis of neotame degradation during granulation; type: physicochemical; settings: roller compaction, cone mill, sieving
Text: A lab scale TF-Mini roller compactor (Vector Corp., Marion, Iowa) was used in conjunction with a cone mill and a Ro-Tap testing sieve shaker (model B, CE Tyler Combustion Engineering, Inc., Mentor, Ohio) for testing and producing granulated neotame. The neotame powder flowed well into the feed hopper. […] The energy consumption of the rolls and feed screw were within the desired limits. The flakes were broken down into granular particles using a cone mill. The granulation was sieved to obtain a particle size that passed through 20 mesh and was retained on 60 mesh.

[2] = bulk density (loose), cup of known volume; type: physicochemical; settings: Example 2; granulation through 20 mesh, retained on 60 mesh, versus initial powder
Description: In particular, bulk density (loose) was measured using a cup of known volume. The cup was filled with sample, excess was removed and the sample was weighed.

## COC(=O)[C@H](Cc1ccccc1)NC(=O)[C@H](CC(=O)O)NCCC(C)(C)C [neotame, N-[N-(3,3-dimethylbutyl)-L-α-aspartyl]-L-phenylalanine 1-methyl ester]
[1]
  degradation of neotame during granulation process: no degradation
[2]
  bulk density: 0.4 g/cc
